The source of these data is article PMC5884906, “Single Administration of HBK-15—a Triple 5-HT1A, 5-HT7, and 5-HT3 Receptor Antagonist—Reverses Depressive-Like Behaviors in Mouse Model of Depression Induced by Corticosterone” (Molecular Neurobiology, 2017).

Read-outs that look alike come from different tables or passages of the source.

Series [1] concerns the target serotonin 5-HT1A receptor. Set-up: method as in PMID 26554929. The note with it: previous experiments; read-out: 5-HT1A receptor antagonist IC50; cited from earlier work.
The target of a further series is 5-HT7 receptor. Set-up: method as in PMID 26554929. The note with it: previous experiments; read-out: 5-HT7 receptor antagonist IC50; cited from earlier work.
Series [2] in a line: pharmacokinetic study in plasma after i.v. and i.p. administration. Format: in vivo, mice. Particulars: HBK-14 2.5 mg/kg, HBK-15 1.25 mg/kg; for AUC(0-inf) / C0: mouse plasma; for C0: read-out: C 0 (initial concentration); for Cmax / MRT / half-life / Tmax / bioavailability / clearance / Vd: CD-1, mouse, plasma; for Cmax: read-out: C max (maximum plasma concentration); for MRT: read-out: MRT (mean residence time) (converted); for half-life: read-out: t 0.5 (terminal half-life); for Tmax: read-out: t max (time to reach the maximum plasma concentration) (converted); for bioavailability: after i.p. administration, AUCi.p./AUCi.v., read-out: F (absolute bioavailability); for clearance: read-out: Cl (systemic clearance); for Vd: read-out: V d (volume of distribution at steady state). On the procedure:
For pharmacokinetic study, HBK-14 and HBK-15 dissolved in saline were administered by an intravenous (i.v.) and intraperitoneal (i.p.) administration at a dose of 2.5 and 1.25 mg/kg, respectively. Blood samples were collected at 0 min (predose), 5 min, 15 min, 30 min, 60 min, 120 min, and 240 min after compounds administration. The blood and brain samples were collected under general anesthesia induced by i.p. injections of 50 mg/kg ketamine plus 8 mg/kg xylazine. Blood samples were collected into heparinized tubes. The samples were immediately centrifuged at 3500 rpm for 10 min, and plasma was collected. The brain and plasma samples were immediately frozen at −80 °C for further analysis.
Pharmacokinetic parameters were calculated by a non-compartmental approach from the average concentration values, using Phoenix WinNonlin software (Certara, Princeton, NJ 08540, USA). First-order elimination rate constant (λ z) was calculated by linear regression of time vs log concentration. Next, the area under the mean serum and brain concentration vs time curve extrapolated to infinity (AUC0→∞) was estimated using the log-linear trapezoidal rule (Eq. 1), where C n is the concentration of last sampling of each compound.1 AUC0→∞=∑i=1nCi+Ci+1/2⋅ti+1−ti+Cn/λz
Area under the first moment curve (AUMC0→∞) was estimated by calculation of the total area under the first moment curve and extrapolated area using the Eq. 2, where t n is the time of last sampling.2 AUMC0→∞=∑i=1nti⋅Ci+ti+1⋅Ci+1/2⋅ti+1−ti+tn⋅Cn/λz+Cn/λz2
Mean residence time (MRT) was calculated as3 MRT=AUMC0→∞/AUC0→∞
Total clearance (ClT) was calculated as4 ClT=Div/AUC0→∞
Volume of distribution at steady state (Vss) was calculated as5 Vss=Div⋅AUMC0→∞/AUC0→∞^2
The quantification of studied compounds in plasma and brain samples was accomplished using UFLC Nexera system (Shimadzu, Kyoto, Japan) coupled to the triple quadrupole mass spectrometer QTrap 5500 (Sciex, Framingham, MA, USA) equipped with Turbo V™ ion source. After preparation, the samples were injected (5 μL) onto Acquity UPLC BEH C18 (3.0 × 100 mm, 1.7 μm, Waters, Milford, MA, USA) analytical column. The mobile phases that consisted of ACN with 0.1% FA (A) and water with 0.1% FA (B) were delivered in isocratic elution mode (40% A, 60% B) at the flow rate of 550 μL/min. The total time of analysis was 8 min including 2 min of column equilibration.
Electrospray ionization process was performed in positive polarization, and the data acquisition was carried out in multiple reaction monitoring mode (MRM) for all analytes and their internal standard (HBK-11 [37]). The ion spray source settings were as follows: spray voltage 4.5 kV, heater temperature 450 °C, curtain gas 25 psi, source gas 1 40 psi, source gas 2 40 psi.
An amount of 50 μL of sample (plasma or brain homogenate) was transferred into the clean Eppendorf tube and spiked with 5 μL of internal standard solution (IS, 1 μg/mL) obtaining the final concentration of 100 ng/mL. After 5 min of mixing (1500 rpm), proteins were precipitated using 150 μL ACN. After 10 min of samples shaking (1500 rpm), the incubation step was performed (10 min, 4 °C). Next, samples were centrifuged (10,000 rpm, 10 min, 4 °C) and the supernatant was transferred into chromatographic vial for LC/MS/MS analysis.

In series [3] the test system is BDNF level in the hippocampus. Kind of series: BDNF level in the hippocampus (ELISA), single administration. Format: in vivo, mice. On the procedure:
Mice were injected with corticosterone (s.c., 20 mg/kg) at random times during the light phase for consecutive 21 days (Fig. 1c). The dose and route of administration of corticosterone were based on studies performed by Zhao and colleagues. After the end of the procedure, next day 30 min before the test, corticosterone-treated mice were given (i.p.) saline, HBK-15 (1.25 mg/kg), fluoxetine (10 mg/kg), or ketamine (1 mg/kg) (Fig. 1c). Control mice received (i.p.) saline. The experimental groups consisted of eight randomly selected animals. We chose the dose of HBK-15 that was active in the chronic experiments (i.e., 1.25 mg/kg). The dose of ketamine was based on the studies performed by Pazini and colleagues. Animals were tested in the forced swim test and spontaneous locomotor activity test. After behavioral testing, mice were scarified and their hippocampi collected for biochemical analysis.
After the behavioral assessments, mice were sacrificed, and their brains were rapidly removed and chilled in an ice-cold saline solution. The hippocampi were dissected on a cold plate, frozen, and stored at −80 °C until assay. On the day of experiments, tissues were thawed on ice and homogenized (1:9 w/v) in phosphate-buffered saline (4 °C) and protease inhibitor cocktail was added. The 10% homogenates were prepared and homogenized for 30 s with TissueRuptor homogenizer. The homogenized tissues were centrifuged (2500×g at 4 °C for 20 min), and the supernatants were collected for further assays.
Protein concentrations of BDNF and NGF in homogenates from hippocampi were determined using the enzyme-linked immunosorbent assay (ELISA) kits (BDNF: DZE201020014, SunRed Biotechnology Company; NGF: MBS825100, MyBioSource) according to the manufacturer’s instructions. […] The samples were analyzed in duplicates, and the mean concentrations were calculated. […] The intensity of the color was read at 450 nm. Absorbance was measured in a multifunction plate reader (POLARstar Omega, BMG Labtech, Germany). […]

`COc1ccccc1N1CCN(CCOCCOc2c(C)cccc2C)CC1.Cl` [HBK-14, 1-[(2,6-Dimethylphenoxy)ethoxyethyl]-4-(2-methoxyphenyl)piperazine hydrochloride]: the IC50 in series [1] is 64 nM. Further, at 5-HT7 receptor, the 50% inhibitory concentration (IC50) is 77 nM. Further, in series [2] (CD-1, ip, i.p.), the AUC(0-inf) is 560 ng·h/mL. Also, in series [2] (CD-1, iv, i.v.), the AUC(0-inf) was 1720 ng·h/mL and the C0 turned out to be 410 ng/mL. Also, in series [2] (ip), the Cmax was determined as 269 ng/mL, the MRT is 0.805 h, the half-life was found to be 0.633 h and the Tmax was 5 min. For the same molecule, the bioavailability in series [2] (ip) turned out to be 15%. In series [2] (iv), the clearance was determined as 24.2 mL/min/kg, the MRT is 7.57 h, the Vd amounted to 11.2 L/kg and the half-life was determined as 5.38 h. In series [2] (i.p.), the “t 0.5 (terminal half-life)” value is 0.637 h. The “t 0.5 (terminal half-life)” value in series [2] (i.v.) was found to be 5.378 h.

On to `COc1ccccc1N1CCN(CCOCCOc2c(C)cccc2Cl)CC1.Cl` [HBK-15, 1-[(2-chloro-6-methylphenoxy)ethoxyethyl]-4-(2-methoxyphenyl)piperazine hydrochloride], for which the IC50 in series [1] is 19 nM. The “effect on corticosterone-induced decrease in BDNF level in the hippocampus” value in series [3] (single 1.25 mg/kg i.p.) is given as “reversed the decrease in BDNF level”. For the same molecule, on 5-HT7 receptor, the IC50 was 220 nM. The molecule also showed an AUC(0-inf) in series [2] (CD-1, ip, i.p.) of 261 ng·h/mL. Besides, in series [2] (CD-1, iv, i.v.), the AUC(0-inf) was 484 ng·h/mL and the C0 amounted to 602 ng/mL. In series [2] (ip), the Cmax was found to be 359 ng/mL, the MRT is 1.81 h, the half-life amounted to 1.4 h and the Tmax was 5 min. Moreover, the bioavailability in series [2] (ip) came to 54%. Besides, in series [2] (iv), the clearance came to 40.2 mL/min/kg, the MRT is 1.5 h, the Vd came to 3.5 L/kg and the half-life was 1.18 h. Also, the “t 0.5 (terminal half-life)” value in series [2] (i.p.) was determined as 1.39 h. In series [2] (i.v.), the “t 0.5 (terminal half-life)” value stood at 1.18 h.

As for `C[C@]12C[C@H](O)[C@H]3[C@@H](CCC4=CC(=O)CC[C@@]43C)[C@@H]1CC[C@@H]2C(=O)CO` [corticosterone], the “decrease in BDNF level in the hippocampus vs control” value in series [3] (acute experiment, corticosterone 20 mg/kg s.c. 21 days + saline) is 47.0%.
